Measured values: patent publication US8829014B2, “Thiazole and thiophene analogues, and their use in treating autoimmune diseases and cancers” (Board of Supervisors of Louisiana State University and …, priority 2006, dated 2014)

Test system: carageenan-induced edema
Assay: Carrageenan-induced rat paw edema test (anti-inflammatory activity)
Assay type: in vivo, Sprague-Dawley rats
Conditions: Rattus norvegicus, po, 3 h, carrageenan-induced rat paw edema; defined in Example 397; read-out: % Protection
Outline: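 Sprague-Dawley rats (male and female, 150-250 g), fasted 18 h, given compound orally at 50 mg/kg in 0.1% sodium CMC (alternatively i.v., s.c. or i.p.). 1% carrageenan injected sub-plantar in right hind paw 1 h later. Paw displacement read again 3 h later; % protection = [(Control−Test)/Control]×100 versus saline control.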

Cc1nc(Nc2ccccc2)sc1-c1nc2ccccc2c(=O)n1-c1ccc(Cl)cc1 [Example 245, 2-(4-Methyl-2-phenylamino-thiazol-5-yl)-3-(4-chloro-phenyl)-3H-quinazolin-4-one] gave an inhibition in vivo at 50 mg/kg of 72%.

Test system: NF-κB
Assay: NF-κB inhibitor screen: basal NF-κB-dependent luciferase expression in HEK/NF-κB cell line
Assay type: cell-based
Conditions: 1 uM; determined as described in Example 398; read-out: NFkB inhibition @ 1 uM
Source text: Development of NF-κB and AP-1 Screens: Two HEK293 cell lines were purchased from Panomics. One cell line was stably transfected with a plasmid in which luciferase expression is regulated by six copies of the NF-κB transcriptional element (5′-[…]-3′); and the other cell line was stably transfected with a plasmid in which luciferase expression is regulated by three copies of the AP-1 transcriptional element (TGACTAA). To test the biological activity of the promoters, the HEK/NF-κB cell line was stimulated with TNF-α (20 ng/ml) for 24 hours, and the HEK/AP-1 cell line was stimulated with PMA (10 ng/ml) for 24 hours. […] In addition, a pyrimidine carboxyimide that had previously been shown (ref. 58) to be an inhibitor of transcription mediated by NF-κB and AP-1 reduced luciferase activity by approximately 40% in each of the NF-κB and AP-1 cell lines.
The above two assays analyzed the effects of the compounds on post-transcriptional gene regulation, which is known to play a key role in cancer and inflammation. By contrast, the NF-κB assay and the following assay (AP-1) test whether the compounds act at the transcriptional level. Thirty-nine representative compounds were screened in an HEK/NF-κB cell line. HEK cells were stably transfected with a plasmid expressing luciferase under the control of the NF-κB promoter. These transfected cells were plated on a 96-well plate. As above, initial screening was carried out at 1.0 μM by adding compound in DMSO (0.3%) twenty-four hours after plating. Each compound was added to each of triplicate wells. DMSO (0.3%) was added to one set of wells as a control. Luciferase activity was determined using Promega's Brite-Glo kit, and the mean for each sample was normalized to that for DMSO.
The fourteen representative compounds identified in the eIF4E screen as interesting (Numbered 2, 3, 4, 6, 8, 11, 15, 20, 21, 24, 25, 32, 33, and 35) were then tested for luciferase activity in a six-point dose response (10 nM, 33 nM, 100 nM, 330 nM, 1000 nM, and 3300 nM). Screening was carried out as described above by monitoring the effects of the compounds on basal NF-κB-dependent luciferase expression. Each dose was used out in triplicate, and repeated between two and four times. Results were normalized by the average expression level at the lowest concentration level, as described above.

Cc1nc(Nc2ccccc2)sc1-c1nc2ccccc2c(=O)n1-c1ccc(Cl)cc1 [Example 245, 2-(4-Methyl-2-phenylamino-thiazol-5-yl)-3-(4-chloro-phenyl)-3H-quinazolin-4-one] showed an inhibition at 1 µM of 79%.

Test system: AP-1
Assay: AP-1 inhibitor screen: basal AP-1-dependent luciferase expression in HEK/AP-1 cell line
Assay type: cell-based
Conditions: AP1; 1 uM; determined as described in Example 398
Source text: Development of NF-κB and AP-1 Screens: Two HEK293 cell lines were purchased from Panomics. One cell line was stably transfected with a plasmid in which luciferase expression is regulated by six copies of the NF-κB transcriptional element (5′-[…]-3′); and the other cell line was stably transfected with a plasmid in which luciferase expression is regulated by three copies of the AP-1 transcriptional element (TGACTAA). To test the biological activity of the promoters, the HEK/NF-κB cell line was stimulated with TNF-α (20 ng/ml) for 24 hours, and the HEK/AP-1 cell line was stimulated with PMA (10 ng/ml) for 24 hours.
HEK cells were stably transfected with a plasmid expressing luciferase under the control of the AP-1 promoter. The transfected cells were plated on a 96-well plate for 24 hr. Then 1.0 μM of each compound in DMSO (0.3%) was added to triplicate wells and incubated for 48 hr. DMSO (0.3%) was added to one set of triplicate wells as a control. Luciferase activity was determined using Promega's Brite-Glo kit, and the mean for each sample was normalized to that for DMSO.
Screening was carried out as described above, monitoring the compounds' effects on basal AP-1-dependent luciferase expression. Each dose-response experiment was carried out in triplicate and repeated between two and four times.

With Cc1nc(Nc2ccccc2)sc1-c1nc2ccccc2c(=O)n1-c1ccc(Cl)cc1 [Example 245, 2-(4-Methyl-2-phenylamino-thiazol-5-yl)-3-(4-chloro-phenyl)-3H-quinazolin-4-one] the inhibition at 1 µM was 82%.

Test system: not given
Assay: not given
Conditions: not given

First: Cc1cnc(-c2cc(-c3ccccc3)c(N3CCOCC3)s2)cc1OCC(F)(F)F [Example 41, 4-{5-[5-Methyl-4-(2,2,2-trifluoro-ethoxy)-pyridine-2-yl]-3-phenyl-thiophene-2-yl}-morpholine]
Second: COc1cccc(-n2c(-c3cc(-c4ccccc4)c(N4CCOCC4)s3)nc3ccccc3c2=O)c1 [Example 299, 3-(3-Methoxy-phenyl)-2-(5-morpholin-4-yl-4-phenyl-thiophen-2-yl)-3H-quinazolin-4-one]
The melting point of the first is lower: 145 to 147 °C for the first, 269 to 272 °C for the second.

First: CCOC(=O)Nc1nc(-c2ccccc2)c(-c2nc3ccccc3c(=O)n2-c2cccc(C)c2)s1 [Example 184, [5-(4-Oxo-3-m-tolyl-3,4-dihydro-quinazolin-2-yl)-4-phenyl-thiazol-2-yl]-carbamic acid ethyl ester]
Second: COC(=O)Nc1nc(-c2ccccc2)c(-c2nc3ccccc3c(=O)n2-c2cccc(C)c2)s1 [Example 185, [5-(4-Oxo-3-m-tolyl-3,4-dihydro-quinazolin-2-yl)-4-phenyl-thiazol-2-yl]-carbamic acid methyl ester]
The melting point of the first is lower: 261 to 263 °C for the first, 268 to 269 °C for the second.

First: COc1ccc(-n2c(-c3cc(-c4ccccc4)c(N4CCOCC4)s3)nc3ccccc3c2=O)cc1 [Example 301, 3-(4-Methoxy-phenyl)-2-(5-morpholin-4-yl-4-phenyl-thiophen-2-yl)-3H-quinazolin-4-one]
Second: COc1ccc(-n2c(-c3cc(-c4ccc(Cl)cc4)c(N4CCOCC4)s3)nc3ccccc3c2=O)cc1 [Example 302, 2-[4-(4-Chloro-phenyl)-5-morpholin-4-yl-thiophene-2-yl]-3-(4-methoxy-phenyl)-3H-quinazolin-4-one]
The melting point of the first is lower: 164 to 165 °C for the first, 217 to 218 °C for the second.

Compared with CCOC(=O)Nc1nc(-c2ccccc2)c(-c2nc3ccccc3c(=O)n2-c2cccc(OC)c2)s1 [Example 212, [5-(4-Oxo-3-(3-methoxyphenyl)-3,4-dihydro-quinazolin-2-yl)-4-phenyl-thiazol-2-yl]-carbamic acid ethyl ester], COC(=O)Nc1nc(-c2ccccc2)c(-c2nc3ccccc3c(=O)n2-c2ccc(OC)cc2)s1 [Example 219, [5-(4-Oxo-3-(4-methoxyphenyl)-3,4-dihydro-quinazolin-2-yl)-4-phenyl-thiazol-2-yl]-carbamic acid methyl ester] is higher in melting point: 204 to 205 °C for the first, 272 to 274 °C for the second.

First: COc1cccc(-n2c(-c3sc(Nc4ccc(Cl)cc4)nc3C)nc3ccccc3c2=O)c1 [Example 211, 2-[2-(4-Chlorophenylamino)-4-methyl-thiazol-5-yl]-3-(3-methoxyphenyl)-3H-quinazolin-4-one]
Second: COc1ccc(-n2c(-c3sc(Nc4ccccc4)nc3C)nc3ccccc3c2=O)cc1 [Example 216, 2-(4-Methyl-2-phenylamino-thiazol-5-yl)-3-(4-methoxyphenyl)-3H-quinazolin-4-one]
The melting point of the first is lower: 243 to 244 °C for the first, 265 to 266 °C for the second.

Compared with COC(=O)Nc1nc(-c2ccccc2)c(-c2nc3ccccc3c(=O)n2-c2ccccc2OC)s1 [Example 204, [5-(4-Oxo-3-(2-methoxyphenyl)-3,4-dihydro-quinazolin-2-yl)-4-phenyl-thiazol-2-yl]-carbamic acid methyl ester], COc1ccccc1-n1c(-c2sc(Nc3ccccc3)nc2C)nc2ccccc2c1=O [Example 202, 2-(4-Methyl-2-phenylamino-thiazol-5-yl)-3-(2-methoxyphenyl)-3H-quinazolin-4-one] is lower in melting point: 228 to 230 °C for the first, 169 to 170 °C for the second.

First: COC(=O)Nc1nc(C)c(-c2nc3ccccc3c(=O)n2-c2ccc(C(C)=O)cc2)s1 [Example 260, (4-Methyl-5-(4-oxo-3-(4-acetyl-phenyl)-3,4-dihydro-quinazolin-2-yl)-thiazol-2-yl)-carbamic acid methyl ester]
Second: CCOC(=O)Nc1nc(C)c(-c2nc3ccccc3c(=O)n2-c2cccc(C)c2)s1
The melting point of the first is higher: 232 to 234 °C for the first, 210 to 211 °C for the second.

First: Cc1cccc(-n2c(-c3sc(Nc4ccccc4)nc3-c3ccccc3)nc3ccccc3c2=O)c1 [Example 187, 3-m-Tolyl-2-(4-phenyl-2-phenylamino-thiazol-5-yl)-3H-quinazolin-4-one]
Second: Cc1ccccc1-n1c(-c2sc(Nc3ccccc3)nc2-c2ccccc2)nc2ccccc2c1=O [Example 174, 3-o-Tolyl-2-(4-phenyl-2-phenylamino-thiazol-5-yl)-3H-quinazolin-4-one]
The melting point of the first is lower: 105 to 107 °C for the first, 141 to 143 °C for the second.

First: CNc1nc(-c2ccccc2)c(-c2nc3ccccc3c(=O)n2-c2ccccc2)s1 [Example 320, 2-(2-Methylamino-4-phenyl-thiazole-5-yl)-3-phenyl-3H-quinazolin-4-one]
Second: CNc1nc(-c2ccccc2)c(-c2nc3ccccc3c(=O)n2-c2ccc(OC)cc2)s1 [Example 220, 2-(2-Methylamino-4-phenyl-thiazol-5-yl)-3-(4-methoxyphenyl)-3H-quinazolin-4-one]
The melting point of the first is lower: 224 to 225 °C for the first, 235 to 236 °C for the second.

First: Cc1nc(NC(=O)c2ccco2)sc1C(=O)c1sc(NC(=O)c2ccco2)nc1C [Example 122, Bis-[2-(2-Furoyl-amino)-4-methyl-thiazole-5-yl]-methanone]
Second: Cc1ccc(-n2c(-c3sc(Nc4ccccc4)nc3C)nc3ccccc3c2=O)cc1 [Example 191, 2-(4-Methyl-2-phenylamino-thiazol-5-yl)-3-p-tolyl-3H-quinazolin-4-one]
The melting point of the first is lower: 198 to 199 °C for the first, 256 to 257 °C for the second.

For Cc1ccc(C(=O)Nc2nc(-c3ccccc3)c(-c3nc4ccccc4c(=O)n3-c3ccccc3Cl)s2)cc1 [Example 236, 4-Methyl-N-[5-(4-oxo-3-(2-chloro-phenyl)-3,4-dihydroquinazolin-2-yl)-4-phenyl-thiazol-2-yl]-benzamide], the melting point was > 275 °C.
For COC(=O)Nc1nc(-c2ccccc2)c(-c2nc3ccccc3c(=O)n2-c2ccc(C)cc2)s1 [Example 194, [5-(4-Oxo-3-p-tolyl-3,4-dihydro-quinazolin-2-yl)-4-phenyl-thiazol-2-yl]-carbamic acid methyl ester], the melting point was > 275 °C.
In the case of COc1ccc(Nc2nc(NC(=O)Nc3ccc(F)cc3)c(-c3cc(C)c(OCC(F)(F)F)cn3)s2)cc1 [Example 367, 1-(4-Fluoro-phenyl)-3-{2-(4-methoxy-phenylamino)-5-[4-methyl-5-(2,2,2-trifluoro-ethoxy)-pyridin-2-yl]-thiazol-4-yl}-urea], the melting point is reported as > 280 °C.
In the case of COc1cccc(-n2c(-c3sc(Nc4ccccc4)nc3C)nc3ccccc3c2=O)c1 [Example 210, 2-(4-Methyl-2-phenylamino-thiazol-5-yl)-3-(3-methoxyphenyl)-3H-quinazolin-4-one], the melting point is reported as > 275 °C.
For Cc1ccccc1-n1c(-c2sc(NC(=O)c3ccccc3)nc2-c2ccccc2)nc2ccccc2c1=O [Example 175, N-[5-(4-Oxo-3-o-tolyl-3,4-dihydro-quinazolin-2-yl)-4-phenyl-thiazole-2-yl]benzamide], the melting point was > 275 °C.
